Assays:
[1] = biological target: T1, PH domain of Akt (His6-Akt123) (Homo sapiens, UniProt P31749); test: NMR 2D HSQC 1H-15N binding analysis, His6-Akt123
T1 construct: Human Akt PH domain a.a; 1-123; made in house; host or cells: E. coli BL21(DE3)
Protocol: Human Akt PH domain a.a. 1-123 and human PDK1 PH domain a.a. 411-557 were cloned by PCR amplification into Bam HI/Eco RI sites of pGEX-6P-1 vector (GE Healthcare). For NMR experiments, His6-Akt PH123 was prepared by cloning corresponding PCR fragment between Nde I and Eco RI sites of pET-28 vector (Novagen). Recombinant proteins were expressed in BL21(DE3) E. coli. Expression was induced by addition of 100 μM IPTG for 16 hr at 25° C. Proteins were purified using glutathione-sepharose (GE Healthcare) or Ni-NTA beads (Qiagen) according to manufacturer's recommendations and dialyzed overnight against 50 mM Tris-HCl (pH 7.5), 150 mM NaCl, and 5 mM β-mercaptoethanol (b-ME) buffer.
To further characterize the mode of action of PIT-1, NMR-based analyses of PIT-1 binding to the PH domain of Akt were performed. […] PIT-1 was further titrated to identify residues primarily affected by the small molecule binding.

[2] = biological target: T2, PLC-δ PH domain (Homo sapiens, UniProt P51178); test: PH domain translocation assay, GFP-fused PLC-δ PH domain; type: cell-based
T2 construct: 100 nM PLC-δ PH domain
T2 sequence (P51178 21-130 limits assumed): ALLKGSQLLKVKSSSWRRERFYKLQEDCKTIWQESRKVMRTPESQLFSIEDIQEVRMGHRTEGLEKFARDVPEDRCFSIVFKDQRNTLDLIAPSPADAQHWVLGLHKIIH
Protocol: Cells were transfected with the corresponding GFP-fusion vectors, serum starved overnight, and incubated with 100 μM PITs or PIT-1is for 2 hr, followed by stimulation with 100 ng/ml PDGF or 250 ng/ml PMA for 5 min. The translocation was analyzed using fluorescent microscope and was quantitated by counting the number of cells with translocated PH domains in five random fields.
In contrast, no inhibitory effect was observed on the cellular localization of PLC-δ PH domain, which is specific for PIP2.

T1 sequence (P31749 1-123): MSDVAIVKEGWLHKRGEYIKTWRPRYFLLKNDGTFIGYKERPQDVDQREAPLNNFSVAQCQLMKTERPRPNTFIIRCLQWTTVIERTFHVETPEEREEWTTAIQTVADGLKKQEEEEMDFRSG

O=C(NC(=S)Nc1cc([N+](=O)[O-])cc(Cl)c1O)c1ccccc1 [PIT-1]
changes in 2D HSQC spectrum of His6-Akt123 [1]: induces significant changes | effect on PLC-δ PH domain localization / PIP2/PH domain binding in cells [2]: does not disrupt
